Our source for the EC50 values is US10160729B2, “Hsp70 modulators and methods for making and using the same” (Memorial Sloan Kettering Cancer Center, priority 2014, dated 2018).

The assay relates to MOLM-13 cells. Description: Caspase cleavage assay (Caspase3, 7 activation). Format: cell-based. Conditions: Homo sapiens, 16 h treatment, caspase substrate Z-DEVD-R110, read-out: c* Concentration at which 50% of the maximum signal was achieved (caspase activation). In short, it runs like this: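 Cells (30,000/well, RPMI) treated 16 h with compound or DMSO in triplicate, then given buffer with 10 mM HEPES pH 7.5, 2 mM EDTA, 0.1% CHAPS and 25 μM Z-DEVD-R110. Fluorescence read once signal stabilized; results given as percentage increase in apoptotic cells versus DMSO-treated control.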
For the compound `CN[C@@H]1CCN(c2ncc(Sc3ccc(C(N)=O)c(Cl)c3)c(OCc3ccc(F)c(OC)c3)n2)C1` [compound 214, (R)-2-Chloro-4-((4-((4-fluoro-3-methoxybenzyl)oxy)-2-(3-(methylamino)pyrrolidin-1-yl)pyrimidin-5-yl)thio)benzamide], the EC50 fell in the range of 0.4 to 1 µM.

For `CN(C)[C@@H]1CCN(c2ncc(Sc3ccc(C(N)=O)c(C(F)(F)F)c3)c(OCc3cccc(Cl)c3)n2)C1` [compound 218, (R)-4-((4-((3-Chlorobenzyl)oxy)-2-(3-(dimethylamino)pyrrolidin-1-yl)pyrimidin-5-yl)thio)-2-(trifluoromethyl)benzamide], the EC50 was below 0.2 µM.

For the compound `CN(C)C1CN(c2ncc(Sc3ccc(C(N)=O)c(C(F)(F)F)c3)c(OCc3cccc(Cl)c3)n2)C1` [compound 225, 4-((4-((3-Chlorobenzyl)oxy)-2-(3-(dimethylamino)azetidin-1-yl)pyrimidin-5-yl)thio)-2-(trifluoromethyl)benzamide], the EC50 lay within 0.2 to 0.4 µM.

Turning to `C#CCCCCN1CCN(c2ncc(Sc3ccc(C(N)=O)c(C(F)(F)F)c3)c(OCc3cccc(Cl)c3)n2)CC1` [compound 226, 4-((4-((3-Chlorobenzyl)oxy)-2-(4-(hex-5-yn-1-yl)piperazin-1-yl)pyrimidin-5-yl)thio)-2-(trifluoromethyl)benzamide], the EC50 was 0.2 to 0.4 µM.

Turning to `NC(=O)c1ccc(Sc2cnc(N3CCN(C4CC4)CC3)nc2OCc2cccc(Cl)c2)cc1C(F)(F)F` [compound 227, 4-((4-((3-Chlorobenzyl)oxy)-2-(4-cyclopropylpiperazin-1-yl)pyrimidin-5-yl)thio)-2-(trifluoromethyl)benzamide], the EC50 is at least 1.2 µM.

For `NC(=O)c1ccc(Sc2cnc(N3CCN(Cc4ccco4)CC3)nc2OCc2cccc(Cl)c2)cc1C(F)(F)F` [compound 228, 4-((4-((3-Chlorobenzyl)oxy)-2-(4-(furan-2-ylmethyl)piperazin-1-yl)pyrimidin-5-yl)thio)-2-(trifluoromethyl)benzamide], the EC50 was below 0.2 µM.

Take `NC(=O)c1ccc(Sc2cnc(N3CCN(Cc4nccs4)CC3)nc2OCc2cccc(Cl)c2)cc1C(F)(F)F` [compound 229, 4-((4-((3-Chlorobenzyl)oxy)-2-(4-(thiazol-2-ylmethyl)piperazin-1-yl)pyrimidin-5-yl)thio)-2-(trifluoromethyl)benzamide]: the EC50 lay within 0.2 to 0.4 µM.

As for `CN1CCN(c2ncc(Oc3ccc(C(N)=O)cc3)c(OCc3ccccc3)n2)CC1` [compound 282, 4-((4-(Benzyloxy)-2-(4-methylpiperazin-1-yl)pyrimidin-5-yl)oxy)benzamide], the EC50 is at least 1.2 µM.

In the case of `COc1ccc(COc2nc(N3CCN(C)CC3)ncc2Oc2ccc(C(N)=O)cc2)cc1` [compound 283, 4-((4-((4-Methoxybenzyl)oxy)-2-(4-methylpiperazin-1-yl)pyrimidin-5-yl)oxy)benzamide], the EC50 is at least 1.2 µM.

Consider `CN1CCN(c2ncc(Oc3ccc(C(N)=O)cc3)c(OCc3cccc(N(C)C)c3)n2)CC1` [compound 284, 4-((4-((3-(Dimethylamino)benzyl)oxy)-2-(4-methylpiperazin-1-yl)pyrimidin-5-yl)oxy)benzamide], for which the EC50 lay in the range of 0.4 to 1 µM.

Take `CN1CCN(c2ncc(Cc3ccc(C(N)=O)cc3)c(OCc3ccccc3)n2)CC1` [compound 299, 4-((4-(Benzyloxy)-2-(4-methylpiperazin-1-yl)pyrimidin-5-yl)methyl)benzamide]: the EC50 was in the range of 0.2 to 0.4 µM.

Take `CN1CCN(c2ncc(Cc3ccc(C(N)=O)cc3)c(OCc3ccc(C#N)cc3)n2)CC1` [compound 304, 4-((4-((4-Cyanobenzyl)oxy)-2-(4-methylpiperazin-1-yl)pyrimidin-5-yl)methyl)benzamide]: the EC50 was at least 1.2 µM.

In the case of `COc1cccc(COc2nc(N3CCN(C4(C)CC4)CC3)ncc2Sc2ccc(C(N)=O)cc2)c1` [compound 311, 4-((4-((3-Methoxybenzyl)oxy)-2-(4-(1-methylcyclopropyl)piperazin-1-yl)pyrimidin-5-yl)thio)benzamide], the EC50 was at least 1.2 µM.

For `COc1cccc(COc2nc(N3CCN(C(C)(C)C4CC4)CC3)ncc2Sc2ccc(C(N)=O)cc2)c1` [compound 313, 4-((2-(4-(2-Cyclopropylpropan-2-yl)piperazin-1-yl)-4-((3-methoxybenzyl)oxy)pyrimidin-5-yl)thio)benzamide], the EC50 is at least 1.2 µM.

With `COc1cccc(COc2nc(N3CCN([C@@H](C)C4CC4)CC3)ncc2Sc2ccc(C(N)=O)cc2)c1` [compound 315, (S)-4-((2-(4-(1-Cyclopropylethyl)piperazin-1-yl)-4-((3-methoxybenzyl)oxy)pyrimidin-5-yl)thio)benzamide], the EC50 was 1 to 1.2 µM.

In the case of `COc1cccc(COc2nc(N3CCN([C@H](C)C4CC4)CC3)ncc2Sc2ccc(C(N)=O)cc2)c1` [compound 317, (R)-4-((2-(4-(1-Cyclopropylethyl)piperazin-1-yl)-4-((3-methoxybenzyl)oxy)pyrimidin-5-yl)thio)benzamide], the EC50 is at least 1.2 µM.

For `COc1cccc(COc2nc(N3CCNC(=O)C3)ncc2Sc2ccc(C(N)=O)cc2)c1` [compound 319, 4-((4-((3-Methoxybenzyl)oxy)-2-(3-oxopiperazin-1-yl)pyrimidin-5-yl)thio)benzamide], the EC50 is at least 1.2 µM.

In the case of `COc1cccc(COc2nc(N3CCN(CC4CC4)C(=O)C3)ncc2Sc2ccc(C(N)=O)cc2)c1` [compound 321, 4-((2-(4-(Cyclopropylmethyl)-3-oxopiperazin-1-yl)-4-((3-methoxybenzyl)oxy)pyrimidin-5-yl)thio)benzamide], the EC50 is below 0.2 µM.

On to `COc1cccc(COc2nc(N3CCN(Cc4ncco4)CC3)ncc2Sc2ccc(C(N)=O)cc2)c1` [compound 323, 4-((4-((3-Methoxybenzyl)oxy)-2-(4-(oxazol-2-ylmethyl)piperazin-1-yl)pyrimidin-5-yl)thio)benzamide], for which the EC50 is below 0.2 µM.

Take `COc1cccc(COc2nc(N3CCN(CC#CCO)CC3)ncc2Sc2ccc(C(N)=O)cc2)c1` [compound 326, 4-((2-(4-(4-Hydroxybut-2-yn-1-yl)piperazin-1-yl)-4-((3-methoxybenzyl)oxy)pyrimidin-5-yl)thio)benzamide]: the EC50 is below 0.2 µM.

`Cc1cccc(COc2nc(N3CCN(C)CC3)ncc2Sc2ccc(C(N)=O)c(C(F)(F)F)c2)c1` [compound 329, 4-((4-((3-Methylbenzyl)oxy)-2-(4-methylpiperazin-1-yl)pyrimidin-5-yl)thio)-2-(trifluoromethyl)benzamide]: the EC50 was 0.4 to 1 µM.

Regarding `CC(C)c1cccc(COc2nc(N3CCN(C)CC3)ncc2Sc2ccc(C(N)=O)c(C(F)(F)F)c2)c1` [compound 331, 4-((4-((3-Isopropylbenzyl)oxy)-2-(4-methylpiperazin-1-yl)pyrimidin-5-yl)thio)-2-(trifluoromethyl)benzamide], the EC50 is at least 1.2 µM.

Turning to `CCc1cccc(COc2nc(N3CCN(C)CC3)ncc2Sc2ccc(C(N)=O)c(C(F)(F)F)c2)c1` [compound 333, 4-((4-((3-Ethylbenzyl)oxy)-2-(4-methylpiperazin-1-yl)pyrimidin-5-yl)thio)-2-(trifluoromethyl)benzamide], the EC50 fell in the range of 1 to 1.2 µM.

For `C#CCN1CCN(c2ncc(Sc3ccc(C(N)=O)cc3)c(OCc3cccc(N(C)C)c3)n2)CC1` [compound 336, 4-((4-((3-(Dimethylamino)benzyl)oxy)-2-(4-(prop-2-yn-1-yl)piperazin-1-yl)pyrimidin-5-yl)thio)benzamide], the EC50 is below 0.2 µM.

As for `C#CCN1CCN(c2ncc(Sc3ccc(C(N)=O)c(C(F)(F)F)c3)c(OCc3cccc(N(C)C)c3)n2)CC1` [compound 339, 4-((4-((3-(Dimethylamino)benzyl)oxy)-2-(4-(prop-2-yn-1-yl)piperazin-1-yl)pyrimidin-5-yl)thio)-2-(trifluoromethyl)benzamide], the EC50 is 0.4 to 1 µM.

For the compound `CN(C)c1cccc(COc2nc(N3CCN(C4CC4)CC3)ncc2Sc2ccc(C(N)=O)c(C(F)(F)F)c2)c1` [compound 341, 4-((2-(4-Cyclopropylpiperazin-1-yl)-4-((3-(dimethylamino)benzyl)oxy)pyrimidin-5-yl)thio)-2-(trifluoromethyl)benzamide], the EC50 is at least 1.2 µM.

For the compound `CN(C)c1cccc(COc2nc(N3CCN(CC4CC4)CC3)ncc2Sc2ccc(C(N)=O)c(C(F)(F)F)c2)c1` [compound 343, 4-((2-(4-(Cyclopropylmethyl)piperazin-1-yl)-4-((3-(dimethylamino)benzyl)oxy)pyrimidin-5-yl)thio)-2-(trifluoromethyl)benzamide], the EC50 is at least 1.2 µM.

For `CN1CCN(c2ncc(Sc3ccc(C(N)=O)c(C(F)(F)F)c3)c(OCc3cccc(N(C)C)c3)n2)CC1=O` [compound 345, 4-((4-((3-(Dimethylamino)benzyl)oxy)-2-(4-methyl-3-oxopiperazin-1-yl)pyrimidin-5-yl)thio)-2-(trifluoromethyl)benzamide], the EC50 lay in the range of 1 to 1.2 µM.

With `C#CCN1CCN(c2ncc(Sc3ccc(C(N)=O)cc3)c(OCc3cccc(Cl)c3)n2)CC1` [compound 348, 4-((4-((3-Chlorobenzyl)oxy)-2-(4-(prop-2-yn-1-yl)piperazin-1-yl)pyrimidin-5-yl)thio)benzamide], the EC50 lay in the range of 0.4 to 1 µM.

In the case of `C#CCN1CCN(c2ncc(Sc3ccc(C(N)=O)c(C(F)(F)F)c3)c(OCc3cccc(Cl)c3)n2)CC1` [compound 351, 4-((4-((3-Chlorobenzyl)oxy)-2-(4-(prop-2-yn-1-yl)piperazin-1-yl)pyrimidin-5-yl)thio)-2-(trifluoromethyl)benzamide], the EC50 was 1 to 1.2 µM.

`C#CCN1CCN(c2ncc(Sc3ccc(C(N)=O)cc3)c(OCc3ccc(F)c(Cl)c3)n2)CC1` [compound 354, 4-((4-((3-Chloro-4-fluorobenzyl)oxy)-2-(4-(prop-2-yn-1-yl)piperazin-1-yl)pyrimidin-5-yl)thio)benzamide]: the EC50 is below 0.2 µM.

On to `C#CCN1CCN(c2ncc(Sc3ccc(C(N)=O)c(C(F)(F)F)c3)c(OCc3cccc(I)c3)n2)CC1` [compound 357, 4-((4-((3-Iodobenzyl)oxy)-2-(4-(prop-2-yn-1-yl)piperazin-1-yl)pyrimidin-5-yl)thio)-2-(trifluoromethyl)benzamide], for which the EC50 was in the range of 0.2 to 0.4 µM.
